The source of these data is ChEMBL document CHEMBL5244281, “Tackling multidrug-resistant Staphylococcus aureus by natural products and their analogues acting as NorA efflux pump inhibitors” (Bioorg Med Chem, 2023).

In assay [1] the test system is Staphylococcus aureus. The assay is described as follows: Antibacterial activity against Staphylococcus aureus K1758 with NorA deletion mutant assessed as bacterial growth inhibition. The class given is functional.
For assay [2], the system named is Staphylococcus aureus. The assay is described as follows: Synergistic antibacterial activity against Staphylococcus aureus 1199B overexpressing NorA efflux protein assessed as fractional inhibitory concentration index in presence of ciprofloxacin by checkerboard assay. The class given is functional.
The subject of assay [3] is Staphylococcus aureus. The assay is described as follows: Synergistic antibacterial activity against Staphylococcus aureus 1199B overexpressing NorA efflux protein assessed as fractional inhibitory concentration index in presence of chloramphenicol by checkerboard assay. The class given is functional.
The subject of assay [4] is Staphylococcus aureus. The assay is described as follows: Antibacterial activity against Staphylococcus aureus 1199B overexpressing NorA efflux protein assessed as bacterial growth inhibition. In kind it is functional.
Assay [5] relates to Staphylococcus aureus. The assay is described as follows: Synergistic antibacterial activity against Staphylococcus aureus 1199B overexpressing NorA efflux protein assessed as fractional inhibitory concentration index in presence of moxifloxacin by checkerboard assay. In kind it is functional.
In assay [6] the test system is Staphylococcus aureus. The assay is described as follows: Synergistic antibacterial activity against Staphylococcus aureus 1199B overexpressing NorA efflux protein assessed as fractional inhibitory concentration index in presence of norfloxacin by checkerboard assay. In kind it is functional.
A further assay has as its system LS180. The assay is described as follows: Cytotoxicity against human LS180 cells. The class given is functional, cell-based.
The target in assay [7] is ATP-dependent translocase ABCB1 (Homo sapiens, UniProt P08183). The assay is described as follows: Inhibition of P-gp mediated efflux in human LS180 cells using digoxin as substrate incubated for 90 mins by fluorescence assay. In kind it is cell-based.
The test system of assay [8] is Staphylococcus aureus. The assay is described as follows: Synergistic antibacterial activity against Staphylococcus aureus 1199B overexpressing NorA efflux pump assessed as fractional inhibitory concentration index in presence of ciprofloxacin incubated for 18 hrs by checkerboard assay. The class given is functional.
For assay [9], the system named is Staphylococcus aureus. The assay is described as follows: Synergistic antibacterial activity against Staphylococcus aureus 1199B overexpressing NorA efflux pump assessed as fractional inhibitory concentration index in presence of norfloxacin incubated for 18 hrs by checkerboard assay. The class given is functional.
For assay [10], the target named is T1, Quinolone resistance protein NorA (Staphylococcus aureus) (UniProt P0A0J7).
T1 sequence (whole entry): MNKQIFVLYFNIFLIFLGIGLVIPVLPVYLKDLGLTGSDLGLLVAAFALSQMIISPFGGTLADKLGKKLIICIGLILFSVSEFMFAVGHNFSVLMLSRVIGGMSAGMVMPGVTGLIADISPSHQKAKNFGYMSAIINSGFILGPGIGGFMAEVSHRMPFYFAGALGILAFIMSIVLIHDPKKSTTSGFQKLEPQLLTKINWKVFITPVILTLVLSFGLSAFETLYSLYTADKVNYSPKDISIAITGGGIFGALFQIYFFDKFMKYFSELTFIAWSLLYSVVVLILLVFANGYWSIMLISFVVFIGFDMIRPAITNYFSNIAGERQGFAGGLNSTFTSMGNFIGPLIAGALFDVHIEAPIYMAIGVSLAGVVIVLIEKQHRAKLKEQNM
The assay is described as follows: Inhibition of NorA efflux pump in Staphylococcus aureus 1199B overexpressing NorA efflux pump assessed as decrease in ciprofloxacin MIC at 1/4 times MIC and measured for 45 mins in presence of ciprofloxacin by fluorimetric analysis (Rvb=8 ug/ml).

For assay [11], the system named is Staphylococcus aureus. The assay is described as follows: Antibacterial activity against Staphylococcus aureus 1199B overexpressing NorA efflux pump assessed as bacterial growth inhibition incubated for 18 hrs by broth dilution method. In kind it is functional.
For assay [12], the system named is Staphylococcus aureus. The assay is described as follows: Antibacterial activity against Staphylococcus aureus K1758 with NorA knockout assessed as bacterial growth inhibition incubated for 18 hrs by broth dilution method. In kind it is functional. For orientation: Dilution methods test growth across graded concentrations, often in twofold steps.
The target of assay [13] is T1, Quinolone resistance protein NorA (Staphylococcus aureus). The assay is described as follows: Inhibition of NorA efflux pump in Staphylococcus aureus 1199B overexpressing NorA efflux pump assessed as decrease in norfloxacin MIC at 1/4 times MIC and measured for 45 mins in presence of norfloxacin by fluorimetric analysis (Rvb=32 ug/ml).

Structures are written as SMILES. ≈ marks a conversion by molar mass, not a printed value. A value given as a limit tells only on which side of the number the result lay.

Consider `Nc1ccccc1-c1cc2ccccc2[nH]1`, for which the MIC in the assay on Staphylococcus aureus [1] worked out at 64 µg/mL (≈ 307 µM); in the assay on Staphylococcus aureus [4], 128 µg/mL (≈ 615 µM). Further, the “fractional inhibitory concentration index (FICI)” value with Staphylococcus aureus [2], in the assay on Staphylococcus aureus [3], in the assay with Staphylococcus aureus [5] and with Staphylococcus aureus [6] was “>=0.5” each time.
For orientation: IC50 means the midpoint of a concentration-inhibition curve. On to `CC(=O)c1c(-c2ccc(F)cc2)cn(-c2ccc(C)cc2)c1C`, for which the IC50 is over 100 µM in the assay on LS180 and 11.2 µM in assay [7].
With `COc1cc(/C=C/C(=O)N/N=C/c2ccc[nH]2)cc(OC)c1OC`, the “fractional inhibitory concentration index (FICI)” value with Staphylococcus aureus [8] and in the assay with Staphylococcus aureus [9] was 0.56 each time. The MIC in [10] was 0.5 µg/mL; with Staphylococcus aureus [11], 64 µg/mL (≈ 194 µM); in the assay on Staphylococcus aureus [12] it was 64 µg/mL (≈ 194 µM); in assay [13], 1 µg/mL.
